According to PubChem BioAssay AID1963840 (Molecular Pharmacology Branch, DTP, NCI, 2024):

Test system: 695427-040-R-J1-PDC complex spheroid viability
Assay: Anticancer human tumor 695427-040-R-J1-PDC patient-derived colon adenocarcinoma cell line growth inhibition [POLQ]
Settings: for IC50: curve of first compound; for viability, T/C: stronger effect = lower value
Protocol: Multicellular complex tumor spheroid response to Polymerase (POL) inhibitors (novobiocin, ART-558, RP6685) in combination with a variety of drugs and investigational agents in selected tumor cell lines
The POL inhibitors (novobiocin, ART-558, and RP6685) were evaluated both individually and in combination with standard of care and investigational anticancer small molecules within a complex spheroid model of solid tumors. . Complex spheroids include a stromal component modeled by human endothelial cells (HUVEC) and fibroblasts modeled by human mesenchymal stem cells (MSCs). The concentration ranges selected for each drug and investigational agent were based upon clinically achievable concentrations if the clinical Cmax of the agent was known.
Compounds. The drugs and investigational agents: novobiocin (NSC847541), ART-558 (NSC835418), RP-6685 (NSC848927), peposertib (NSC802822), ceralasertib (NSC780249), elimusertib (NSC800525), camonsertib (NSC841442), AZD-1390 (NSC803789), olaparib (NSC753686), talazoparib (NSC767125), rucaparib (NSC756644), sotorasib (NSC818433), MRTX-1133 (NSC836407), SN-38 (NSC673596), topotecan (NSC609699), epotoside (NSC141540), doxorubicin (NSC123127), gemcitabine (NSC613327), 5-fluorouracil (NSC19893), paclitaxel (NSC125973), vemurafenib (NSC761431), MSA-2 (NSC828583), SN-011 (NSC837082), adavosertib (NSC754352), prexasertib (NSC758257), carboplatin (NSC241240) and oxaliplatin (NSC266046), were obtained from the National Cancer Institute (NCI) Developmental Therapeutics Program Chemical Repository (21). The FDA-approved anticancer drug set is available from the Developmental Therapeutics Program at https://dtp.cancer.gov/organization/dscb/obtaining/. […] The stock solutions were prepared in dimethyl sulfoxide (DMSO, Sigma-Aldrich, St. Louis, MO, cat. D2650), except for the platinum compounds which were prepared in saline (Quality Biological, Gaithersburg, MD, cat. 114-055-101), at 800-fold the tested concentration and stored at -70 degrees C prior to their use. All drugs and investigational agents were tested over a range starting from a high concentration at or near the clinical Cmax and decreasing in half-log increments. If the clinical Cmax for an agent had not been determined, the highest concentration tested was 10 microM, except for SN-38, which was tested at a high concentration of 1 microM.
Cell Culture. All cells were maintained in an incubator at 37 degrees C and 5% CO2 with 95% humidity. The PDC lines were cultured according to standard operating procedures established by the NCI PDMR (https://pdmr.cancer.gov). Table 3 of the manuscript, lists the cell lines along with the number of the three cell types plated to form the mct-spheroids and media for tumor cell growth. After thawing, all PDC lines, except 997537-175-T-J1-PDC and 415267-285-R-J2-PDC, were cultured in Matrigel-coated flasks prepared with a working solution of 1X Ham's F-12 nutrient mix, without supplementation (Thermo Fisher Scientific, cat. 11765054), 100 U/mL penicillin-streptomycin (Thermo Fisher Scientific, cat. 15140122), and 2.5% Matrigel (Corning Inc., Corning, NY, cat. 354248) for the first three passages. The two PDC lines 997537-175-T-J1-PDC and 415267-285-R-J2-PDC were cultured on uncoated flasks. The 857933-349-R-J2-PDC line was cultured in 6C/Colon 1B media containing advanced DMEM/F-12 (Thermo Fisher Scientific, cat. 12634028), 10 mM HEPES (Thermo Fisher Scientific, cat. 15630080), 1X GlutaMAX supplement (Thermo Fisher Scientific, cat. 35050061), 0.1 mg/mL primocin (InvivoGen, San Diego, CA, cat. ant-pm-2), 10% defined fetal bovine serum, heat inactivated (HyClone Laboratories Inc., Logan, UT, cat. SH30070.03HI), 50% L-WRN conditioned media (ATCC, cat. CRL-3276), 1.25 mM N-Acetyl-L-cysteine (Sigma-Aldrich, cat. A9165), 10 mM nicotinamide (Sigma-Aldrich, cat. N0636), 1X B-27 supplement (Thermo Fisher Scientific, cat. 17504044), 1X N-2 supplement (Thermo Fisher Scientific, cat. […]

[1] = second compound 0.0316 µM, first compound 0.0316 µM
[2] = second compound 0.0316 µM, first compound 0.1 µM
[3] = second compound 0.0316 µM, first compound 0.316 µM
[4] = second compound 0.0316 µM, first compound 1 µM
[5] = second compound 0.0316 µM, first compound 3.16 µM
[6] = second compound 0.0316 µM, first compound 10 µM
[7] = second compound 0.1 µM, first compound 0.0316 µM
[8] = second compound 0.1 µM, first compound 0.1 µM
[9] = second compound 0.1 µM, first compound 0.316 µM
[10] = second compound 0.1 µM, first compound 1 µM
[11] = second compound 0.1 µM, first compound 3.16 µM
[12] = second compound 0.1 µM, first compound 10 µM
[13] = second compound 0.316 µM, first compound 0.0316 µM
[14] = second compound 0.316 µM, first compound 0.1 µM
[15] = second compound 0.316 µM, first compound 0.316 µM
[16] = second compound 0.316 µM, first compound 1 µM
[17] = second compound 0.316 µM, first compound 3.16 µM
[18] = second compound 0.316 µM, first compound 10 µM
[19] = second compound 1 µM, first compound 0.0316 µM
[20] = second compound 1 µM, first compound 0.1 µM
[21] = second compound 1 µM, first compound 0.316 µM
[22] = second compound 1 µM, first compound 1 µM
[23] = second compound 1 µM, first compound 3.16 µM
[24] = second compound 1 µM, first compound 10 µM
[25] = second compound 3.16 µM, first compound 0.0316 µM
[26] = second compound 3.16 µM, first compound 0.1 µM
[27] = second compound 3.16 µM, first compound 0.316 µM
[28] = second compound 3.16 µM, first compound 1 µM
[29] = second compound 3.16 µM, first compound 3.16 µM
[30] = second compound 3.16 µM, first compound 10 µM
[31] = second compound 10 µM, first compound 0.0316 µM
[32] = second compound 10 µM, first compound 0.1 µM
[33] = second compound 10 µM, first compound 0.316 µM
[34] = second compound 10 µM, first compound 1 µM
[35] = second compound 10 µM, first compound 3.16 µM
[36] = second compound 10 µM, first compound 10 µM
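Note: spheroids exposed to compounds for seven days.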
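Throughout, for viability, T/C: 100% = DMSO vehicle control viability.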

In the case of CCc1cc2c(N3CCc4c(cc(Cn5ccnc5)cc4-c4cn(C)nc4C(F)(F)F)C3=O)cc(C)nc2c(OC)n1 + COC1C(OC(N)=O)C(O)C(Oc2ccc3c(O)c(NC(=O)c4ccc(O)c(CC=C(C)C)c4)c(=O)oc3c2C)OC1(C)C, the IC50 (second compound 0.0316 µM) is reported as > 10 µM, the IC50 (second compound 0.1 µM) is reported as > 10 µM and the IC50 (second compound 0.316 µM) is reported as > 10 µM. The IC50 (second compound 1 µM) was > 10 µM, the IC50 (second compound 3.16 µM) was > 10 µM and the IC50 (second compound 10 µM) was > 10 µM. For the same compound, the viability, T/C [1] was 106%, the viability, T/C [2] was 103% and the viability, T/C [3] was 111%. The viability, T/C [4] was 107%, the viability, T/C [5] was 108% and the viability, T/C [6] was 99.1%. For the same compound, the viability, T/C [7] was 114%, the viability, T/C [8] was 104% and the viability, T/C [9] was 105%. It also gave a viability, T/C [10] of 96.5%, a viability, T/C [11] of 111% and a viability, T/C [12] of 117%. It also gave a viability, T/C [13] of 107%, a viability, T/C [14] of 112% and a viability, T/C [15] of 106%. For the same compound, the viability, T/C [16] was 109%, the viability, T/C [17] was 110% and the viability, T/C [18] was 97.8%. The viability, T/C [19] was 108%, the viability, T/C [20] was 108% and the viability, T/C [21] was 105%. For the same compound, the viability, T/C [22] was 101%, the viability, T/C [23] was 120% and the viability, T/C [24] was 99.3%. The viability, T/C [25] was 117%, the viability, T/C [26] was 109% and the viability, T/C [27] was 113%. It also gave a viability, T/C [28] of 105%, a viability, T/C [29] of 115% and a viability, T/C [30] of 97.3%. The viability, T/C [31] was 116%, the viability, T/C [32] was 118% and the viability, T/C [33] was 110%. It also gave a viability, T/C [34] of 109%, a viability, T/C [35] of 117% and a viability, T/C [36] of 122%.
In the case of CCc1c2c(nc3ccc(O)cc13)-c1cc3c(c(=O)n1C2)COC(=O)[C@]3(O)CC + Cc1cccc(N(C)C(=O)C2C(O)CCN2c2nc(C)cc(C(F)(F)F)c2C#N)c1, the IC50 (second compound 0.0316 µM) is reported as > 1 µM, the IC50 (second compound 0.1 µM) is reported as > 1 µM and the IC50 (second compound 0.316 µM) is reported as > 1 µM. For the same compound, the IC50 (second compound 1 µM) was > 1 µM, the IC50 (second compound 3.16 µM) was 0.912 µM and the IC50 (second compound 10 µM) was 0.572 µM. For the same compound, the viability, T/C (second compound 0.0316 µM, first compound 0.00316 µM) was 101%, the viability, T/C (second compound 0.0316 µM, first compound 0.01 µM) was 90.1% and the viability, T/C [1] was 83%. It also gave a viability, T/C [2] of 81.7%, a viability, T/C [3] of 66.1% and a viability, T/C [4] of 51.4%. For the same compound, the viability, T/C (second compound 0.1 µM, first compound 0.00316 µM) was 99.6%, the viability, T/C (second compound 0.1 µM, first compound 0.01 µM) was 98.9% and the viability, T/C [7] was 80.5%. For the same compound, the viability, T/C [8] was 76.3%, the viability, T/C [9] was 69.3% and the viability, T/C [10] was 52.8%. It also gave a viability, T/C (second compound 0.316 µM, first compound 0.00316 µM) of 93.2%, a viability, T/C (second compound 0.316 µM, first compound 0.01 µM) of 92.8% and a viability, T/C [13] of 90.7%. It also gave a viability, T/C [14] of 75.8%, a viability, T/C [15] of 67.4% and a viability, T/C [16] of 49.7%. It also gave a viability, T/C (second compound 1 µM, first compound 0.00316 µM) of 96.2%, a viability, T/C (second compound 1 µM, first compound 0.01 µM) of 94.5% and a viability, T/C [19] of 85.2%. The viability, T/C [20] was 77.3%, the viability, T/C [21] was 67.9% and the viability, T/C [22] was 51.2%. For the same compound, the viability, T/C (second compound 3.16 µM, first compound 0.00316 µM) was 89.4%, the viability, T/C (second compound 3.16 µM, first compound 0.01 µM) was 84.9% and the viability, T/C [25] was 82.2%. The viability, T/C [26] was 82.8%, the viability, T/C [27] was 66.3% and the viability, T/C [28] was 48.6%. For the same compound, the viability, T/C (second compound 10 µM, first compound 0.00316 µM) was 84.2%, the viability, T/C (second compound 10 µM, first compound 0.01 µM) was 80.7% and the viability, T/C [31] was 78.9%. For the same compound, the viability, T/C [32] was 70.5%, the viability, T/C [33] was 58.5% and the viability, T/C [34] was 41.7%.
In the case of COc1cc(C2c3cc4c(cc3C(OC3OC5COC(C)OC5C(O)C3O)C3COC(=O)C23)OCO4)cc(OC)c1O (stereo unspecified) + Cc1cccc(N(C)C(=O)C2C(O)CCN2c2nc(C)cc(C(F)(F)F)c2C#N)c1, the IC50 (second compound 0.0316 µM) is reported as > 10 µM, the IC50 (second compound 0.1 µM) is reported as > 10 µM and the IC50 (second compound 0.316 µM) is reported as > 10 µM. The IC50 (second compound 1 µM) was > 10 µM, the IC50 (second compound 3.16 µM) was > 10 µM and the IC50 (second compound 10 µM) was > 10 µM. For the same compound, the viability, T/C [1] was 104%, the viability, T/C [2] was 89.7% and the viability, T/C [3] was 107%. For the same compound, the viability, T/C [4] was 108%, the viability, T/C [5] was 92.3% and the viability, T/C [6] was 81.3%. The viability, T/C [7] was 96.4%, the viability, T/C [8] was 92.6% and the viability, T/C [9] was 102%. For the same compound, the viability, T/C [10] was 93.4%, the viability, T/C [11] was 96.1% and the viability, T/C [12] was 84.7%. The viability, T/C [13] was 95.7%, the viability, T/C [14] was 89.8% and the viability, T/C [15] was 102%. For the same compound, the viability, T/C [16] was 89.8%, the viability, T/C [17] was 93.2% and the viability, T/C [18] was 81.9%. The viability, T/C [19] was 96.2%, the viability, T/C [20] was 98.7% and the viability, T/C [21] was 89.9%. The viability, T/C [22] was 87.9%, the viability, T/C [23] was 91.9% and the viability, T/C [24] was 77.1%. The viability, T/C [25] was 92.8%, the viability, T/C [26] was 102% and the viability, T/C [27] was 93.4%. For the same compound, the viability, T/C [28] was 91.5%, the viability, T/C [29] was 89.6% and the viability, T/C [30] was 80.8%. It also gave a viability, T/C [31] of 98%, a viability, T/C [32] of 80.5% and a viability, T/C [33] of 90%. For the same compound, the viability, T/C [34] was 86.8%, the viability, T/C [35] was 84.3% and the viability, T/C [36] was 71.1%.
